For test [1], the target named is T1, Rac GTPase-activating protein 1 (Homo sapiens, UniProt Q9H0H5).
T1 sequence (Q9H0H5 whole entry): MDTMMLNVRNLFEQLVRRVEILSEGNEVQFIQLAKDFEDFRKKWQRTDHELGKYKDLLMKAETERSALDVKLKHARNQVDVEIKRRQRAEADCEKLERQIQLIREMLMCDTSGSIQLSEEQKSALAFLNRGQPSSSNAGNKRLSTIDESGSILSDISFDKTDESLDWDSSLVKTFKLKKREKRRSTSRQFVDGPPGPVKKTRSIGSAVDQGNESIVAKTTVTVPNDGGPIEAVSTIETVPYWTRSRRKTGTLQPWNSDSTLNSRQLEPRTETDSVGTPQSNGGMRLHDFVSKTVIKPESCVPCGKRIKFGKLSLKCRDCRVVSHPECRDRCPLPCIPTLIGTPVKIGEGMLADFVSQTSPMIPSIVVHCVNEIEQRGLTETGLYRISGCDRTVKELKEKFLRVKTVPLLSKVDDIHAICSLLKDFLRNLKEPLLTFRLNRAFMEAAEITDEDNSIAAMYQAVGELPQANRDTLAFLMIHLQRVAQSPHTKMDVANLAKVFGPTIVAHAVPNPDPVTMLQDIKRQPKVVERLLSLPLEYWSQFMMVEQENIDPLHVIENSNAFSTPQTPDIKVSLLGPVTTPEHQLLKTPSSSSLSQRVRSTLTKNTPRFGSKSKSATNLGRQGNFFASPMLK
As to the kind of experiment: MgcRacGAP GTPase-activating activity inhibitors, confirmation, biochemical, ADP Hunter fluorescence, primary and confirmatory (AID 624330). The test is classed as functional.

For a further test, the target named is Protein Wnt-3a (Mus musculus, UniProt P27467). As to the kind of experiment: Wnt3a-driven reporter signaling inhibition, dose response, selectivity assay for Gli-SUFU antagonist project, Wnt-LIGHT cells, luminescence (AID 651570).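 Note: Wnt-LIGHT reporter cells stimulated with conditioned medium from Wnt3a-producing cells.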 The test is classed as functional. The following applies: read-out: IC50_Mean.
A short description of test [2]: ARNT/TACC3 interaction disruptors, potency, confirmation, biochemical, AlphaScreen, cherry-picked samples (AID 651703).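 Note: His-tagged ARNT PAS-B domain paired with GST-TACC3 E629A dimer coactivator fragment; potency of inhibitors that break up the complex and lower AlphaScreen signal.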 It counts as functional, Homo sapiens. (Bead proximity is the source of the signal in Alpha formats.)
For test [3], the target named is Hepatocyte nuclear factor 4-alpha (Homo sapiens, UniProt P41235). The test is classed as functional, cell-based.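 Note: biochemical luminescence-based dose-response counterscreen measuring inhibition of HNF4 dimerization, run alongside a screen for blockers of ABHD5–perilipin-5 interaction; split luciferase complementation of HNF4 fusion proteins in cell lysate measuring dimerization.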
Test [4] concerns the target Induced myeloid leukemia cell differentiation protein Mcl-1 (Homo sapiens, UniProt Q07820). It counts as functional.
In test [5] the target is Adenosylmethionine-8-amino-7-oxononanoate aminotransferase (Mycobacterium tuberculosis, UniProt P9WQ81). As to the kind of experiment: Mycobacterium tuberculosis BioA enzyme inhibitor Measured in Biochemical System Using Plate Reader - 2163-02_Inhibitor_Dose_CherryPick_Activity. The test is classed as functional, Mycobacterium tuberculosis UT205.
Test [6] has as its target T2, Sentrin-specific protease 6 (Homo sapiens, UniProt Q9GZR1).
T2 sequence (Q9GZR1 whole entry): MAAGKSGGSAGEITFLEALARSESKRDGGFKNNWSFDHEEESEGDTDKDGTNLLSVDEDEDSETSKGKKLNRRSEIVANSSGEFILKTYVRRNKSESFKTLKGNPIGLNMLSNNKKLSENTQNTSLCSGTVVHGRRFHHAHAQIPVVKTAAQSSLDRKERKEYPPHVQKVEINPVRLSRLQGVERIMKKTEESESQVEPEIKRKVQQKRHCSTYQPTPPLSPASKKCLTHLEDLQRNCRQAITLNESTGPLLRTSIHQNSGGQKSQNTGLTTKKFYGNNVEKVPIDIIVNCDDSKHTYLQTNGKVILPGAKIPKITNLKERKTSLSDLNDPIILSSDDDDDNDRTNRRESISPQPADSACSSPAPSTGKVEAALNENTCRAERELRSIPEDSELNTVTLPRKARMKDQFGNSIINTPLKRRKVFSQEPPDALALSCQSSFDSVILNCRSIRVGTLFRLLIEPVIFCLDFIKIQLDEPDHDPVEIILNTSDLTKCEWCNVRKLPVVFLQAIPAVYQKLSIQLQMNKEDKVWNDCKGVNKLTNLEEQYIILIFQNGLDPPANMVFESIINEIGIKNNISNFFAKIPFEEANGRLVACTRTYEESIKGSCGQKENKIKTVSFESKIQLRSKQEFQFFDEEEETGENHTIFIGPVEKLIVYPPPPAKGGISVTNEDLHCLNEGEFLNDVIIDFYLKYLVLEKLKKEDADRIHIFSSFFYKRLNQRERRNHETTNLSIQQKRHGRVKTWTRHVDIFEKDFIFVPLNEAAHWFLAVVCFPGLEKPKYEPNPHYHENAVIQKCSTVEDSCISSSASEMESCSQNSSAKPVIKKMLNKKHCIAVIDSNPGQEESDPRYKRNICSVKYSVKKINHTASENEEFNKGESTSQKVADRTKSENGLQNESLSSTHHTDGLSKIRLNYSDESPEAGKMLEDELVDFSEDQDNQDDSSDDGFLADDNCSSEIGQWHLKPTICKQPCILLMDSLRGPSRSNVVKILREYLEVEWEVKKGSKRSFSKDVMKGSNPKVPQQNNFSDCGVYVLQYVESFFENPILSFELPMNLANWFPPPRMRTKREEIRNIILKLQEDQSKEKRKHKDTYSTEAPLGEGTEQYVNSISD
As to the kind of experiment: SAR Analysis of small molecule inhibitors of Sentrin-specific protease 6 (SENP6) using a Luminescent assay. [Related pubchem assays (depositor defined):AID2582, AID2599]. The test is classed as functional.

The target in another test is T3, Caspase-3 (Homo sapiens, UniProt P42574).
T3 sequence (P42574 whole entry): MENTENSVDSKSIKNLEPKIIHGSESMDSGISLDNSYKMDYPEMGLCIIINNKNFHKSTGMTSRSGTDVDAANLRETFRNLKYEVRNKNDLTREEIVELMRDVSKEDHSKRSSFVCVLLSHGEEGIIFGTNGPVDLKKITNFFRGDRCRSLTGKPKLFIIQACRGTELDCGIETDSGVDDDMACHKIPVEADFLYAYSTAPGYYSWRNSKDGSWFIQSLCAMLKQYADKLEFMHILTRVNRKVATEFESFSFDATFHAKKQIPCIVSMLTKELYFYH
As to the kind of experiment: SAR Analysis of small molecule inhibitors of Sentrin-specific proteases (SENPs) using a Caspase-3 Selectivity assay. [Related pubchem assays (depositor defined):AID2540, AID2599, AID434973, AID489001]. The test is classed as functional.

Test [7] has as its target T4, Sentrin-specific protease 7 (Homo sapiens, UniProt Q9BQF6).
T4 sequence (Q9BQF6 whole entry): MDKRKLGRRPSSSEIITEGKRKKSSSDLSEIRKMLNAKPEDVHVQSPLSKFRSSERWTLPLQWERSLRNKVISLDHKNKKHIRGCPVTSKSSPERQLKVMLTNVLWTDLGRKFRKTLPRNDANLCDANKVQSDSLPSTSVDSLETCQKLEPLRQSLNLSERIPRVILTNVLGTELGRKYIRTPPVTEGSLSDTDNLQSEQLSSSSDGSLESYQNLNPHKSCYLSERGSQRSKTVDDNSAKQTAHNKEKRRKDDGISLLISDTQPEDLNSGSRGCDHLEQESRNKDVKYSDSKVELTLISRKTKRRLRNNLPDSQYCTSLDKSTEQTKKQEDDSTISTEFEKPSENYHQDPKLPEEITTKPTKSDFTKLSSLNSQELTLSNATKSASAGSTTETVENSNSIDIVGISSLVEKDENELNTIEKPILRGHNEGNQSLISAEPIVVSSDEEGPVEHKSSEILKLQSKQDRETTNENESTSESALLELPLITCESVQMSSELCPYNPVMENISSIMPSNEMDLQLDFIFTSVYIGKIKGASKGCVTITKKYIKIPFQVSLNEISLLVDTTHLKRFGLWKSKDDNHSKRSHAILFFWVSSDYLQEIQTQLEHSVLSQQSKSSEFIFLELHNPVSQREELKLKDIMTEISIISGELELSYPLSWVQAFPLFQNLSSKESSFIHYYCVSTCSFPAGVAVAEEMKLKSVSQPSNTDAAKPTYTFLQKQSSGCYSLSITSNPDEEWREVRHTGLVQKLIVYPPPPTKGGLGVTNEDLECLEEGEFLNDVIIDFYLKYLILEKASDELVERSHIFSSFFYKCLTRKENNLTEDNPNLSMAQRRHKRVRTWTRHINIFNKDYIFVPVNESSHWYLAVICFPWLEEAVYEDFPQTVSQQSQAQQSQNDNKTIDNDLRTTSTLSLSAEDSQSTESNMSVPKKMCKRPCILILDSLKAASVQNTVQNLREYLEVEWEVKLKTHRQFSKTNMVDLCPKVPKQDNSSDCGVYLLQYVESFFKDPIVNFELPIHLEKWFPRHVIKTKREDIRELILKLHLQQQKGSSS
As to the kind of experiment: SENP7 protease inhibitors, SAR follow-up, biochemical, luminescence (AID 504497). The test is classed as functional.

The target in test [8] is T5, Sentrin-specific protease 8 (Homo sapiens, UniProt Q96LD8).
T5 sequence (Q96LD8 whole entry): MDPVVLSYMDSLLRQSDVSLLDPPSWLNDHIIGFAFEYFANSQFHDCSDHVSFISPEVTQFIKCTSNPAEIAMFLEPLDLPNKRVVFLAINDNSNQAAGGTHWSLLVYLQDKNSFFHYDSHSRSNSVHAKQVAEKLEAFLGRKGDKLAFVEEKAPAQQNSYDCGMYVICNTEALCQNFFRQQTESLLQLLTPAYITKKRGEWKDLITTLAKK
As to the kind of experiment: SENP8 protease inhibitors, SAR follow-up, biochemical, luminescence (AID 504501). The test is classed as functional.

Test [9] has as its target Mitochondrial peptide methionine sulfoxide reductase (Bos taurus, UniProt P54149). As to the kind of experiment: Absorbance-based biochemical high throughput dose response assay for activators of Methionine sulfoxide reductase A (MsrA). The test is classed as functional.

Each structure is given as a SMILES string. The source made the active and inactive calls.

Sequence of Protein Wnt-3a (P27467 whole entry, the tested form may be a part): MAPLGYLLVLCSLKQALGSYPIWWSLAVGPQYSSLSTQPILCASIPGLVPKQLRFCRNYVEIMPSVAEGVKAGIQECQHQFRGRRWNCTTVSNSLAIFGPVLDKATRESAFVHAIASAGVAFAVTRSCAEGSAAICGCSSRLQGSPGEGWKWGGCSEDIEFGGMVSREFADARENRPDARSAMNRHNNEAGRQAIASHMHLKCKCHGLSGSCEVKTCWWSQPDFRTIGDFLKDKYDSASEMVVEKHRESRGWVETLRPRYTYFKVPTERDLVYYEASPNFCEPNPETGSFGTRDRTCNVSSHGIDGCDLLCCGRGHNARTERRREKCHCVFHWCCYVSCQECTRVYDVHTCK
Sequence of Hepatocyte nuclear factor 4-alpha (P41235 whole entry, the tested form may be a part): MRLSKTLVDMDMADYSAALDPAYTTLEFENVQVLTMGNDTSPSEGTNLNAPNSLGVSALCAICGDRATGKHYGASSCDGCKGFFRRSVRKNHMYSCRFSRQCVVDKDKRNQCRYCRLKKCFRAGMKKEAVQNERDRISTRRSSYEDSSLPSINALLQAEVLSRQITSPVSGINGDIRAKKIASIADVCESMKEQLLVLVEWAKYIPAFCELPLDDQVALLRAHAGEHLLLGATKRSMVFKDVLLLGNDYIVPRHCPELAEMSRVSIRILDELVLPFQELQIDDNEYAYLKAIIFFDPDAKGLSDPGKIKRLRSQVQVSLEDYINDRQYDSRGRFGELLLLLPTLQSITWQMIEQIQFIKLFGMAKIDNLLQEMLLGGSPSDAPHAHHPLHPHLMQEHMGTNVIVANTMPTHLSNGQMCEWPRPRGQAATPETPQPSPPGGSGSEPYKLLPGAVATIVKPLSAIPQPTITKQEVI
Sequence of Adenosylmethionine-8-amino-7-oxononanoate aminotransferase (P9WQ81 whole entry): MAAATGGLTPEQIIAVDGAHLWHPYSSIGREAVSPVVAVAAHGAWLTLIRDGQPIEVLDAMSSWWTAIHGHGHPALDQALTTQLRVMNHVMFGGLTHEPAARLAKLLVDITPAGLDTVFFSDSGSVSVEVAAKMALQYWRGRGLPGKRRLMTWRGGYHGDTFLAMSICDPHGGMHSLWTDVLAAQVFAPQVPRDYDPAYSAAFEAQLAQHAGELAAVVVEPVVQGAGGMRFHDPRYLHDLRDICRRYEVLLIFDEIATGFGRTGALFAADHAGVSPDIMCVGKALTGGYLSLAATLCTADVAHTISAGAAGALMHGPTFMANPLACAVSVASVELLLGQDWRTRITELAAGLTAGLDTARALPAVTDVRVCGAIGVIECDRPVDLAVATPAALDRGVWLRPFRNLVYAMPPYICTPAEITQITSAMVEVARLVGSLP
Sequence of Mitochondrial peptide methionine sulfoxide reductase (P54149 whole entry): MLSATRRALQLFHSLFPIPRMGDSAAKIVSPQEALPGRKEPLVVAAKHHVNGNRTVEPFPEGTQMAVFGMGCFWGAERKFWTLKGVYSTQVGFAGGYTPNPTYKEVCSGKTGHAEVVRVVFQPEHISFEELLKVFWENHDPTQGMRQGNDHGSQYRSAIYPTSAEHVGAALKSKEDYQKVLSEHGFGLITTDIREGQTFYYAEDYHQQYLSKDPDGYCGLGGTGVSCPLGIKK
Sequence of Induced myeloid leukemia cell differentiation protein Mcl-1 (Q07820 whole entry): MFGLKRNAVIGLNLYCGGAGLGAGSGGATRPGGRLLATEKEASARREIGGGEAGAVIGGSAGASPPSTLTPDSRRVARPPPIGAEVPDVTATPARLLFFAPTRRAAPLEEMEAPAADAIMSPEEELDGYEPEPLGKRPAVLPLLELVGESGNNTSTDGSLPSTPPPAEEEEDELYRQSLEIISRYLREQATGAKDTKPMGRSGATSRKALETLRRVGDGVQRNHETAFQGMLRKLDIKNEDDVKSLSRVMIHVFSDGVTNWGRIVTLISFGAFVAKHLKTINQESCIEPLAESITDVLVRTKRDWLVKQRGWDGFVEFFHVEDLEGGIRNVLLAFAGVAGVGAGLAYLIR

For `Cc1nc2ncccn2c1-c1csc(Nc2ccc(O)cc2)n1`, the results for the IC50 (in test [1]; on Protein Wnt-3a) were 14.3 µM (active) and 48.9 µM (inactive), respectively.

What is called AC50 is the concentration at which the activity in the assay is half-maximal. With `O=C(NCc1ccccn1)c1c(-c2ccccc2)sc2ccccc12`, the AC50 in test [2] is 121 µM (active).

On to `CS(=O)(=O)c1ccc(C(=O)NCCN2C(=O)S/C(=C\c3cccnc3)C2=O)cc1[N+](=O)[O-]`, for which the IC50 was 5.89 µM (active) in test [3] and 2.17 µM (active) in test [4].

As for `CC(C)(C)c1cc(C(=O)Nc2cccnc2)cc(C(=O)Nc2cccnc2)c1`, in [5], the AC50 is 1.28 µM (active).

Turning to `CCCCc1ccc2nc(NC(=O)C3CCCCC3)sc2c1`, the IC50 (in [6]; at Caspase-3; in test [7]; in [8]) was > 99 µM (inactive) in each case.

As to `Cc1cc(C(F)F)nn1CC(=O)Nc1sc2c(c1C#N)CCC2`, the IC50 (in test [6]; on Caspase-3; in [7]; in [8]) was > 99 µM (inactive) throughout.

Take `COc1cccc(NC(=O)CCC2CCN(C(=O)c3ccc(C(C)=O)s3)CC2)c1`: the half-maximal activity concentration (AC50) in test [5] was 0.508 µM (active).

Consider `CC(=O)N1CN(Cc2ccccn2)Cc2c1sc1c2CCCC1`, for which the AC50 in test [2] is 87.9 µM (active).

Broadly, the EC50 is the concentration needed to bring the measured effect to its halfway point. As for `CC1(C(=O)Nc2ccccc2)CCN1C(=O)Cc1ccc(-c2ccccc2)cc1` (centres undefined), in [9], the EC50 was > 104 µM (inactive).

Turning to `CC(=O)c1c(C)[nH]c(C(=O)OCC(=O)Nc2cccc(S(=O)(=O)N3CCCC3)c2)c1C`, the IC50 at Protein Wnt-3a was 5.02 µM (active).

`CCCCCNC(=O)C(c1cccc2ccccc12)n1c(=O)c(-c2ccco2)nc2ccccc21` (centres undefined): in [3], the IC50 was 2.83 µM (active).

Source of the values: ChEMBL document CHEMBL1201862, “PubChem BioAssay data set” (2004).
